Assay results reported in US4599336A, “Derivatives of (E)-3-(4-oxo-4H-quinazolin-3-yl)-2-propenamide” (Hoffmann-La Roche Inc., priority 1983, dated 1986).
pIC50: −log10 of the molar value.

Tested on: SRS-A-induced constriction of the guinea pig ileum
Experiment: Guinea Pig Ileum, In Vitro (inhibition of SRS-A-induced constriction)
Format: cell-based
Details: Cavia porcellus; SRS-A-induced constriction; in vitro; read-out: Guinea Pig Ileum, IC50
Experimental: The guinea pig ileum bioassay system has been described by Orange and Austen, Adv. Immunol. […] A 1.5 cm segment is removed from animals weighing 300-400 g. and suspended in an organ bath containing 10 ml. of Tyrodes solution with 10^-6 M atropine sulfate and 10^-6 M pyrilamine maleate. […] The SRS-A utilized in this screen is obtained by challenging chopped lung fragments from actively sensitized guinea pigs with egg albumin, in vitro. A dose-response curve to SRS-A challenge is established for the ileum. […] The drug concentration which inhibits, by 50%, the SRS-A-induced constriction of the guinea pig ileum is determined.

CC(C)c1ccc2ncn(/C=C/C(=O)NCCCCc3cccnc3)c(=O)c2c1 [drawing 12]
pIC50: 6.00

CC(C)c1ccc2ncn(/C=C/C(=O)NCCCCn3ccnc3)c(=O)c2c1 [drawing 15]
pIC50: 5.30

CC(C)c1ccc2ncn(/C=C/C(=O)NCCCCc3ccccn3)c(=O)c2c1 [drawing 17]
pIC50: < 5.00
